One block for each molecule: values may come before it.
Assays:
in vitro [1] = conditions: human, liver microsomes
[2] = test system: Human immunodeficiency virus 1; assay: Antiviral activity against wild type HIV-1 IIIB infected in human MT4 cells assessed as protection against virus-induced cytopathic effect measured after 5 days by MTT assay; type: functional, organism-based; conditions: Human immunodeficiency virus 1, IIIB, MT4, 120 h
MT4 = assay: (§1) Cytotoxicity against human MT4 cells assessed as reduction in cell viability incubated for 5 days by MTT assay; conditions: mt4, 120 h
[3] = test system: Human immunodeficiency virus 1; assay: Antiviral activity against HIV1 NL4-3 Env-deficient pseudotype virus infected in human U87.CD4.CCR5.CXCR4 cells assessed by reduction in viral infection in early stage at 1 uM measured after 48 hrs by luciferase activity based single-round infection assay; type: functional; design: scale not given: the % may be the effect or the level left
[4] = test system: Human immunodeficiency virus 1; assay: Antiviral activity against HIV1 NL4-3 Env-deficient pseudotype virus infected in human U87.CD4.CCR5.CXCR4 cells assessed by reduction in viral infection in late stage at 1 uM measured after 48 hrs by luciferase activity based single-round infection assay; type: functional; design: scale not given: the % may be the effect or the level left
[5] = human, microsomes, 3 h, 100 µM
in vitro [6] = conditions: human, liver microsomes; remark: listed apart in the source
Description: Metabolic stability in human liver microsome assessed as parent compound remaining at 100 uM measured after 60 mins in presence of NADPH by LC-MS/MS analysis

in vitro [7] = conditions: human, liver microsomes; remark: listed apart in the source
Description: Metabolic stability in human liver microsome assessed as parent compound remaining at 100 uM measured after 60 mins by LC-MS/MS analysis

in vitro [8] = conditions: human, MT4 cells
Description: Selectivity index, ratio of CC50 for cytotoxicity against human MT4 cells to EC50 for antiviral activity against HIV-1 IIIB infected in human MT4 cells

[9] = as §1; conditions: MT4 cells
[10] = human, microsomes, 3 h, 100 µM; remark: listed apart in the source
[11] = test system: Human immunodeficiency virus 1; assay: Antiviral activity against HIV1 NL4-3 Env-deficient pseudotype virus infected in human U87.CD4.CCR5.CXCR4 cells assessed by reduction in viral infection in early stage at 5 uM measured after 48 hrs by luciferase activity based single-round infection assay; type: functional; design: scale not given: the % may be the effect or the level left
[12] = test system: Human immunodeficiency virus 1; assay: Antiviral activity against HIV1 NL4-3 Env-deficient pseudotype virus infected in human U87.CD4.CCR5.CXCR4 cells assessed by reduction in viral infection in late stage at 5 uM measured after 48 hrs by luciferase activity based single-round infection assay; type: functional; design: scale not given: the % may be the effect or the level left
in vitro [13] = conditions: human, MT4 cells; remark: listed apart in the source
Description: Selectivity index, ratio of CC50 for cytotoxicity against human MT4 cells to EC50 for antiviral activity against HIV-1 ROD infected in human MT4 cells

- half-life at 3 h, 100 µM (in vitro [1]): 0.5 min
Compound: Cc1[nH]c2ccccc2c1CC(=O)N[C@@H](Cc1ccccc1)C(=O)N(C)c1ccccc1

Compound: COc1ccc(N(C)C(=O)[C@H](Cc2ccccc2)NC(=O)CN2CCN(S(=O)(=O)c3ccc(N)cc3)CC2=O)cc1
- EC50 [2]: 0.16 µM
- CC50 (MT4): 119 µM
- Activity [3]: 7.1%
- Activity [4]: 55%
- CLH [5]: 395.6 µL/min/mg
- remaining at 1 h, 100 µM (in vitro [6]): 0.1%
- remaining at 1 h, 100 µM (in vitro [7]): 106%

Compound: COc1ccc(N(C)C(=O)[C@H](Cc2ccccc2)NC(=O)CN2CCN(CC(=O)N[C@@H](Cc3ccccc3)C(=O)N(C)c3ccc(OC)cc3)C(=O)C2)cc1
- EC50 [2]: ≥ 3.67 µM
- CC50 (MT4): 15.7 µM

Compound: COc1ccc(N(C)C(=O)[C@H](Cc2cc(F)cc(F)c2)NC(=O)CN2CCN(CC(=O)N[C@@H](Cc3ccccc3)C(=O)N(C)c3ccccc3)C(=O)C2)cc1
- EC50 [2]: 4.19 µM
- CC50 (MT4): 12.8 µM
- selectivity ratio (in vitro [8]): 3.05

Compound: COc1ccc(N(C)C(=O)[C@H](Cc2ccccc2)NC(=O)CN2CC(=O)N(CC(=O)N[C@@H](Cc3ccccc3)C(=O)N(C)c3ccc(OC)cc3)CC2=O)cc1
- EC50 [2]: 3.59 µM
- CC50 at 120 h [9]: 24.5 µM
- selectivity ratio (in vitro [8]): 6.82

Compound: COc1ccc(N(C)C(=O)[C@H](Cc2cc(F)cc(F)c2)NC(=O)CN2CCN(CC(=O)N[C@@H](Cc3ccccc3)C(=O)N(C)c3ccc(OC)cc3)C(=O)C2)cc1
- EC50 [2]: 1.48 µM
- CC50 (MT4): 13.5 µM
- selectivity ratio (in vitro [8]): 9.11

Compound: CN(C(=O)[C@H](Cc1ccccc1)NC(=O)CN1CCNCC1=O)c1ccccc1
- EC50 [2]: 247 µM
- CC50 at 120 h [9]: > 317 µM

Compound: COc1ccc(N(C)C(=O)[C@H](Cc2cc(F)cc(F)c2)NC(=O)CN2CCN(CC(=O)N[C@@H](Cc3ccccc3)C(=O)N(C)c3ccccc3)CC2=O)cc1
- EC50 [2]: 2.84 µM
- CC50 (MT4): 17.5 µM
- selectivity ratio (in vitro [8]): 6.15

Compound: COc1ccc(N(C)C(=O)[C@H](Cc2cc(F)cc(F)c2)NC(=O)CN2CCNCC2=O)cc1
- EC50 [2]: 31.1 µM
- CC50 (MT4): > 272 µM

Compound: COc1ccc(N(C)C(=O)[C@H](Cc2ccccc2)NC(=O)CN2CCNCC2=O)cc1
- EC50 [2]: 89.2 µM
- CC50 (MT4): > 294 µM

Compound: COc1ccc(N(C)C(=O)[C@H](Cc2cc(F)cc(F)c2)NC(=O)CN2CC(=O)N(CC(=O)N[C@@H](Cc3cc(F)cc(F)c3)C(=O)N(C)c3ccc(OC)cc3)CC2=O)cc1
- EC50 [2]: 0.69 µM
- CC50 (MT4): 13.3 µM
- t1/2 [10]: 1.6 min
- CLH [5]: 843.9 µL/min/mg
- remaining at 1 h, 100 µM (in vitro [6]): 0%
- remaining at 1 h, 100 µM (in vitro [7]): 105%

Compound: COc1ccc(N(C)C(=O)[C@H](Cc2ccccc2)NC(=O)CN2CCN(CC(=O)N[C@@H](Cc3ccccc3)C(=O)N(C)c3ccccc3)CC2=O)cc1
- EC50 [2]: > 32.4 µM
- CC50 (MT4): 32.4 µM

- t1/2 [10]: 0.8 min
Compound: COc1ccc(N(C)C(=O)[C@H](Cc2cc(F)cc(F)c2)NC(=O)CN2CCN(CC(=O)N[C@@H](Cc3cc(F)cc(F)c3)C(=O)N(C)c3ccc(OC)cc3)C(=O)C2)cc1
- Activity [11]: 86.6%
- Activity [12]: 0.6%

Compound: COc1ccc(N(C)C(=O)[C@H](Cc2ccccc2)NC(=O)CN2CCN(CC(=O)N[C@@H](Cc3cc(F)cc(F)c3)C(=O)N(C)c3ccc(OC)cc3)C(=O)C2)cc1
- EC50 [2]: 2.52 µM
- CC50 (MT4): 15.5 µM
- selectivity ratio (in vitro [8]): 6.14

Compound: CN(C(=O)[C@H](Cc1ccccc1)NC(=O)CN1CC(=O)N(CC(=O)N[C@@H](Cc2ccccc2)C(=O)N(C)c2ccccc2)CC1=O)c1ccccc1
- EC50 [2]: 4.24 µM
- CC50 (MT4): 71.8 µM
- selectivity ratio (in vitro [8]): 16.9
- selectivity ratio (in vitro [13]): 2.41

Compound: COc1ccc(N(C)C(=O)[C@H](Cc2ccccc2)NC(=O)CN2CCN(CC(=O)N[C@@H](Cc3ccccc3)C(=O)N(C)c3ccccc3)C(=O)C2)cc1
- EC50 [2]: ≥ 3.37 µM
- CC50 (MT4): 21.7 µM

Compound: CN(C(=O)[C@H](Cc1ccccc1)NC(=O)CN1CCN(CC(=O)N[C@@H](Cc2ccccc2)C(=O)N(C)c2ccccc2)C(=O)C1)c1ccccc1
- EC50 [2]: > 32.6 µM
- CC50 (MT4): 32.6 µM

— ChEMBL document CHEMBL5143506, “Design, synthesis, and mechanism study of dimerized phenylalanine derivatives as novel HIV-1 capsid inhibitors” (Eur J Med Chem, 2021)
